Test results as given in US9067974B2, “Polymyxin derivatives and uses thereof” (priority 2006, dated 2015).
Bridge positions count the residues as written; N and C are the ends. Square brackets hold non-standard residues; d marks the D form. Peptide text beside a SMILES is read from it. * marks the point of attachment. Octanoyl = CCCCCCCC(=O)*; Dab = NCC[C@H](N)C(=O)O; Abu = CC[C@H](N)C(=O)O

Assays:
E. coli IH3080 (K1:O18) [1] = test: Well diffusion growth inhibition on LB agar plates (direct antibacterial activity); format: cell-based, Escherichia coli
Summary of the method: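 Growth inhibition of encapsulated E. coli IH3080 (K1:O18) was measured by well diffusion on LB agar plates. A suspension of about 10^8 cells/ml in 0.9% NaCl, made from an overnight LB agar culture, was spread over the plates and the excess removed. Once dry, five 2 mm wells were drilled per plate and test solutions added, with 0.9% NaCl as control. After 18 h at 37° C, inhibition zone diameters were measured and converted to surface areas in square mm.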

[2] = test system: Acinetobacter baumannii ATCC 19606; test: as above; format: cell-based; conditions: A. baumannii ATCC 19606
Summary of the method: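 Direct antibacterial activity against Acinetobacter baumannii ATCC 19606 was measured by agar well diffusion on LB plates. The plates were flooded with a suspension of approx. 10^8 cells/ml in 0.9% NaCl, and the excess was removed. Once the surface dried, five wells of 2 mm diameter were drilled per plate. The wells were filled with test compound dissolved in 0.9% NaCl, with plain 0.9% NaCl as control. After 18 h at 37° C., inhibition zone diameters were measured and converted to growth inhibition areas in square mm.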

[3] = test system: Pseudomonas aeruginosa ATCC 27853; test: as above; format: cell-based; conditions: Ps. aeruginosa ATCC 27853
Summary of the method: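 Pseudomonas aeruginosa ATCC 27853 was tested for direct antibacterial susceptibility by agar well diffusion. A suspension of about 10^8 cells/ml in 0.9% NaCl was spread over LB agar and the excess removed. After drying, 2 mm wells were drilled and filled with compound dissolved in 0.9% NaCl, with NaCl alone as control. Plates were incubated 18 h at 37° C, and inhibition zone diameters were measured and converted to areas in square mm.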

E. coli CCUG41427 = test: E-test MIC of antibiotics on Mueller-Hinton agar with or without NAB7061 (4 μg/ml); sensitization factor = MIC ratio absence/presence; format: cell-based, Escherichia coli
Procedure: (§1) MICs were determined by using E-strips (Biodisk Ltd., Solna, Sweden) according to the manufacturer's instructions.
(§2) The strains originated from ATCC (11 strains), CCUG (11 strains), and NCTC (The National Collection of Type Cultures, Colindale, U.K.; 2 strains). Eight strains (the F-strains) were purchased from Mobidiag Ltd., Helsinki, Finland. The source of E. coli IH3080 has been given in Example 2. Sensitization factor was defined as in Example 7.

E. coli CCUG41432 = test: as above; format: cell-based, Escherichia coli
Procedure: as §1, §2

E. coli NCTC13351 = test: as above; format: cell-based, Escherichia coli
Procedure: as §1, §2

E. cloacae CCUG52947 = test: as above; format: cell-based, Enterobacter cloacae
Procedure: as §1, §2

E. cloacae F230 = test: as above; format: cell-based, Enterobacter cloacae
Procedure: as §1, §2

E. cloacae F232 = test: as above; format: cell-based, Enterobacter cloacae
Procedure: as §1, §2

S. maltophilia ATCC17444 = test: as above; format: cell-based
Procedure: as §1, §2

S. marcescens ATCC8100 = test: as above; format: cell-based, Serratia marcescens
Procedure: as §1, §2

E. coli IH3080 (K1:O18) [4] = test: Experimental E. coli peritonitis model in mice; format: in vivo; conditions: 4.5 h postinfection ([…] after the treatment), 5 mg/kg subcutaneous
Procedure: A suspension of E. coli IH3080 (K1:O18) in saline (0.9% NaCl) was prepared from an overnight culture on a blood agar plate (Statens Serum Institut, Copenhagen, Denmark). All mice (female NMR1 from Harlan Scandinavia, Allerød, Denmark; weight, 25-30 g) were inoculated intraperitoneally with 0.5 ml of the suspension containing 0.96×10^6 CFU per ml in the lateral lower quadrant of the abdomen. At 1 h, the CFU count was determined from three mice and the remaining mice (four mice per group) were treated with a subcutaneous injection of 0.2 ml of erythromycin solution in saline (corresponding to 5 mg/kg body weight) or NAB7061 solution in saline (corresponding to 5 mg/kg body weight), or both erythromycin and NAB7061 (corresponding to 5 mg/kg body weight of both drugs; given at two separate sites). Control group received two 0.2 ml injections of saline. At 4.5 h postinfection, all mice were anaesthetized with CO2 and sacrificed. Sterile saline (2 ml) was injected intraperitoneally and the abdomen was gently massaged before it was opened and the fluid sampled. Appropriate dilutions of the fluid were plated on blood agar plates, the plates were incubated overnight, and the colonies were counted.

[5] = test system: E. coli (ATCC25922 and IH3080), K. pneumoniae ATCC13883, and E. cloacae ATCC23355; test: E-test sensitization by NAB7061 (4 μg/ml), summary over the tested strains of Table 7; format: cell-based; conditions: range over the tested strains
Procedure: as §1

[6] = test system: three strains of A. baumannii; test: E-test sensitization by NAB7061 (4 μg/ml), summary over A. baumannii strains; format: cell-based, Acinetobacter baumannii
Source text: as §2
Strains of K. pneumoniae remained somewhat more resistant to both antibiotics, and the sensitization factors varied between 10 and 500.

With CCCCCCCC(=O)N[C@H](C(=O)N[C@@H](CC)C(=O)N[C@H]1CCNC(=O)[C@H]([C@@H](C)O)NC(=O)[C@H](CCN)NC(=O)[C@H](CCN)NC(=O)[C@H](CC(C)C)NC(=O)[C@@H](Cc2ccccc2)NC(=O)[C@H](CCN)NC1=O)[C@@H](C)O [NAB 7061, OA-Thr-Abu-cy[Dab-Dab-DPhe-Leu-Dab-Dab-Thr-]] (Octanoyl-T[Abu][Dab][Dab][dF]L[Dab][Dab]T; lactam 3-C) the “Antibacterial activity (growth inhibition area around a well)” value (E. coli IH3080 (K1:O18) [1]; 4 μg of compound per well) was 0 square millimeters, the “Antibacterial activity (growth inhibition area around a well)” value (E. coli IH3080 (K1:O18) [1]; 10 μg of compound per well) was 50 square millimeters and the “Antibacterial activity (growth inhibition area around a well)” value ([2]; 4 μg per well) was 0 square millimeters. The “Antibacterial activity (growth inhibition area around a well)” value ([2]; 10 μg per well) was 0 square millimeters, the “Antibacterial activity (growth inhibition area around a well)” value ([3]; 4 μg per well) was 0 square millimeters and the “Antibacterial activity (growth inhibition area around a well)” value ([3]; 10 μg per well) was 0 square millimeters. The “MIC of clarithromycin in the presence of 4 μg/ml of NAB 7061” value (“MIC of clarithromycin” for short) (E. coli CCUG41427) was 0.064 µg/mL, the “MIC of rifampin in the presence of 4 μg/ml of NAB 7061” value (“MIC of rifampin” below) (E. coli CCUG41427) was 0.032 to 0.064 µg/mL and the “Sensitization factor to rifampin” value (E. coli CCUG41427; NAB 7061 4 μg/ml) was 100-250. The “MIC of clarithromycin” value (E. coli CCUG41432) was 0.064 µg/mL, the “MIC of rifampin” value (E. coli CCUG41432) was 0.032 µg/mL and the “Sensitization factor to rifampin” value (E. coli CCUG41432; NAB 7061 4 μg/ml) was 180-250. For the same compound, the “MIC of clarithromycin” value (E. coli NCTC13351) was 0.032 µg/mL, the “MIC of rifampin” value (E. coli NCTC13351) was 0.032 to 0.047 µg/mL and the “Sensitization factor to rifampin” value (E. coli NCTC13351; NAB 7061 4 μg/ml) was 340-500. The “MIC of rifampin” value (E. cloacae CCUG52947) was 0.032 to 0.047 µg/mL, the “Sensitization factor to rifampin” value (E. cloacae CCUG52947; NAB 7061 4 μg/ml) was 500-1000 and the “MIC of clarithromycin” value (E. cloacae F230) was 0.047 µg/mL. The “MIC of rifampin” value (E. cloacae F230) was 0.016 to 0.032 µg/mL, the “MIC of clarithromycin” value (E. cloacae F232) was 0.094 µg/mL and the “MIC of rifampin” value (E. cloacae F232) was 0.023 µg/mL. For the same compound, the “MIC of rifampin” value (S. maltophilia ATCC17444) was 2 µg/mL, the “MIC of rifampin” value (S. marcescens ATCC8100) was 16 µg/mL and the “CFU counts in peritoneal fluid” value (E. coli IH3080 (K1:O18) [4]) was 1.1 (±0.6)×10^6 per ml. The “Sensitization factor to azithromycin” value [5] was 31-94, the “Sensitization factor to clarithromycin” value [5] was 63-380 and the “Resulting MIC to rifampin in the presence of NAB7061 (4 μg/ml)” value [6] was ≤ 0.125 µg/mL.
